Patent US20210163964A1, “ENGINEERED STREPTOMYCES ALBUS STRAINS” (University of Florida Research Foundation, Incorporated, priority 2018, published 2021)

Tested on: S. albus J1074 and the Δpfk-derivative strain
Assay: Diamide sensitivity disc assay
Type: cell-based, Streptomyces albus J1074
Conditions: 100 mM diamide disc; ΔpfkSA mutant relative to wild type S. albus J1074; R5A plates, 30° C., 24 h
Procedure: Lawns of S. albus J1074 wild-type and Δpfk mutant were generated by overlaying R5A plates (sucrose 100 g/l, K2SO4 0.25 g/l, MgCl2 10.12 g/l, glucose 10 g/l, Casamino acids 0.1 g/l, yeast extract 5 g/l, MOPS 21 g/l, NAOH 2 g/l, R2YE trace elements 2 ml/l, 15 g/L agar) with 3 ml soft Nutrient Agar containing 10^7 fresh spores. Immediately after plating, paper discs soaked in 100 mM diamide were added and plates were incubated at 30° C. for 24 h.

CN(C)C(=O)/N=N/C(=O)N(C)C [diamide]
sensitivity to diamide (halo around disc): less sensitive
